What was measured:
[1] = target: Gamma-aminobutyric acid receptor subunit alpha-1/alpha-2/beta-2/gamma-2 (Homo sapiens, UniProt P14867+P18507+P47869+P47870); type: functional, cell-based
[2] = target: T1, Amine oxidase [flavin-containing] A (Homo sapiens, UniProt P21397); type: functional
T1 sequence (P21397 whole entry): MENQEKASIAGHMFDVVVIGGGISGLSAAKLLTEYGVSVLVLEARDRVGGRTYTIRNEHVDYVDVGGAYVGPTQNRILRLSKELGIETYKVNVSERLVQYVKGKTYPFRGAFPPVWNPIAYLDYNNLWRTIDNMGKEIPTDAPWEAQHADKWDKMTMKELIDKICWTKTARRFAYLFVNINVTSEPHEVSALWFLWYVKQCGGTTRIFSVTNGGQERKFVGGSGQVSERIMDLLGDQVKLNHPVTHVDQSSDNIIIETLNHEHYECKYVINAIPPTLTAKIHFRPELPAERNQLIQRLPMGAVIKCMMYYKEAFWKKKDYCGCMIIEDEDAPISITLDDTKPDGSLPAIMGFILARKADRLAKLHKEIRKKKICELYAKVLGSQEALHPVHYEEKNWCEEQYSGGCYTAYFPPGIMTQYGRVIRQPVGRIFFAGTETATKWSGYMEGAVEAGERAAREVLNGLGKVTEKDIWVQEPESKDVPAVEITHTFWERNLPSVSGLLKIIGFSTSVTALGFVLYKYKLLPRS

[3] = target: T2, 5-hydroxytryptamine receptor 3A (Homo sapiens, UniProt P46098); type: functional
T2 sequence (P46098 whole entry): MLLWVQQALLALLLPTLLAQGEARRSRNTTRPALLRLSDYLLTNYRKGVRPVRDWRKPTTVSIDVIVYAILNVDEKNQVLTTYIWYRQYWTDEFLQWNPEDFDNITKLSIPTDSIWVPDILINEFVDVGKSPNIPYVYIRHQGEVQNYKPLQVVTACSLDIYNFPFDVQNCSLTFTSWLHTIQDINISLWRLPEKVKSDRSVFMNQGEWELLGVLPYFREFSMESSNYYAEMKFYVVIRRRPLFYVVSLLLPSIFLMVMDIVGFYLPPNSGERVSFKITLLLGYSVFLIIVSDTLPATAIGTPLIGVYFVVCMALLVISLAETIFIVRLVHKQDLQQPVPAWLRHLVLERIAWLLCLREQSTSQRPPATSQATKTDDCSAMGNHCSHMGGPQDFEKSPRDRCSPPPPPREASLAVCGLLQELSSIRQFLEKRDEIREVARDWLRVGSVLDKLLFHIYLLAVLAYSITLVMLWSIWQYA

Endothelin-1 receptor = target: T3, Endothelin-1 receptor (Homo sapiens, UniProt P25101)
T3 sequence (P25101 whole entry): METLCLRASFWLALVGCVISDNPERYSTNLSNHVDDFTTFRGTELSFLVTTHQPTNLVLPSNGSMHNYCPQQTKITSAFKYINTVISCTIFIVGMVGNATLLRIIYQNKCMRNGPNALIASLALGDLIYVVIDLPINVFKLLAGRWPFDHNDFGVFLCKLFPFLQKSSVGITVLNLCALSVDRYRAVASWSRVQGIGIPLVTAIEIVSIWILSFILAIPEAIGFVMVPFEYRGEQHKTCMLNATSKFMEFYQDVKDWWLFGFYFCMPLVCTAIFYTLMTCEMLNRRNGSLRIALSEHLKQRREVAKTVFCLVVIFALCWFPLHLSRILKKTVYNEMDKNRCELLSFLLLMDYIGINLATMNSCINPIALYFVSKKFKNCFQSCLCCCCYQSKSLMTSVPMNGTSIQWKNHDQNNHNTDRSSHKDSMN

[4] = target: T4, Equilibrative nucleoside transporter 1 (Homo sapiens, UniProt Q99808)
T4 sequence (Q99808 whole entry): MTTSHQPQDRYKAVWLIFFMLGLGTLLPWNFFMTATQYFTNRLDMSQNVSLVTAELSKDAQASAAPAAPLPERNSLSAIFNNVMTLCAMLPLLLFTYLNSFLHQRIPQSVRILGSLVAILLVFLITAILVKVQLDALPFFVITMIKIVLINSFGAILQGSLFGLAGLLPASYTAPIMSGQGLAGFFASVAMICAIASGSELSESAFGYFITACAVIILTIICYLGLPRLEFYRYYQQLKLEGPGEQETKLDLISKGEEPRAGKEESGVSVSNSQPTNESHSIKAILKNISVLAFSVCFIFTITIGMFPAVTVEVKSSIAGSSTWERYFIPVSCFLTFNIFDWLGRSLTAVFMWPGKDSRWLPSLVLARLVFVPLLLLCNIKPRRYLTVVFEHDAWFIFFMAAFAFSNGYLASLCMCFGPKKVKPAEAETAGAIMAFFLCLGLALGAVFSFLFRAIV

[5] = target: Glutamate receptor ionotropic, NMDA 1 (Rattus norvegicus, UniProt P35439)
[6] = target: Kappa-type opioid receptor (Homo sapiens, UniProt P41145)
D(1A) dopamine receptor = D(1A) dopamine receptor (Homo sapiens, UniProt P21728)
[7] = target: T5, Alpha-1A adrenergic receptor (Homo sapiens, UniProt P35348); type: functional, cell-based
T5 sequence (P35348 whole entry): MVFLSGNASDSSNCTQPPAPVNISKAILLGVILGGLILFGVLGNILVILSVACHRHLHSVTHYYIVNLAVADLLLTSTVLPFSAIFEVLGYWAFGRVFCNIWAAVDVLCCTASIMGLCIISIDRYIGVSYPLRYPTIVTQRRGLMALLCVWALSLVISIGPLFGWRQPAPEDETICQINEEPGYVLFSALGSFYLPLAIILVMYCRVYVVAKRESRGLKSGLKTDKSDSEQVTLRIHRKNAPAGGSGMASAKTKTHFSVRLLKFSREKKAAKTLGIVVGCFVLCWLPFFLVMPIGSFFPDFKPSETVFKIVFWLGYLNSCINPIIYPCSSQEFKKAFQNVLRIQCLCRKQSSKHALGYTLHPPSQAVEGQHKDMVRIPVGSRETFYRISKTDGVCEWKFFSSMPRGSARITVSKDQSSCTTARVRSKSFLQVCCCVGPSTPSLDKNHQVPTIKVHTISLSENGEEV

[8] = target: Vascular endothelial growth factor receptor 2 (Homo sapiens, UniProt P35968); type: functional
Note: assay procedure not described here.

Sequence of Vascular endothelial growth factor receptor 2 (P35968 whole entry): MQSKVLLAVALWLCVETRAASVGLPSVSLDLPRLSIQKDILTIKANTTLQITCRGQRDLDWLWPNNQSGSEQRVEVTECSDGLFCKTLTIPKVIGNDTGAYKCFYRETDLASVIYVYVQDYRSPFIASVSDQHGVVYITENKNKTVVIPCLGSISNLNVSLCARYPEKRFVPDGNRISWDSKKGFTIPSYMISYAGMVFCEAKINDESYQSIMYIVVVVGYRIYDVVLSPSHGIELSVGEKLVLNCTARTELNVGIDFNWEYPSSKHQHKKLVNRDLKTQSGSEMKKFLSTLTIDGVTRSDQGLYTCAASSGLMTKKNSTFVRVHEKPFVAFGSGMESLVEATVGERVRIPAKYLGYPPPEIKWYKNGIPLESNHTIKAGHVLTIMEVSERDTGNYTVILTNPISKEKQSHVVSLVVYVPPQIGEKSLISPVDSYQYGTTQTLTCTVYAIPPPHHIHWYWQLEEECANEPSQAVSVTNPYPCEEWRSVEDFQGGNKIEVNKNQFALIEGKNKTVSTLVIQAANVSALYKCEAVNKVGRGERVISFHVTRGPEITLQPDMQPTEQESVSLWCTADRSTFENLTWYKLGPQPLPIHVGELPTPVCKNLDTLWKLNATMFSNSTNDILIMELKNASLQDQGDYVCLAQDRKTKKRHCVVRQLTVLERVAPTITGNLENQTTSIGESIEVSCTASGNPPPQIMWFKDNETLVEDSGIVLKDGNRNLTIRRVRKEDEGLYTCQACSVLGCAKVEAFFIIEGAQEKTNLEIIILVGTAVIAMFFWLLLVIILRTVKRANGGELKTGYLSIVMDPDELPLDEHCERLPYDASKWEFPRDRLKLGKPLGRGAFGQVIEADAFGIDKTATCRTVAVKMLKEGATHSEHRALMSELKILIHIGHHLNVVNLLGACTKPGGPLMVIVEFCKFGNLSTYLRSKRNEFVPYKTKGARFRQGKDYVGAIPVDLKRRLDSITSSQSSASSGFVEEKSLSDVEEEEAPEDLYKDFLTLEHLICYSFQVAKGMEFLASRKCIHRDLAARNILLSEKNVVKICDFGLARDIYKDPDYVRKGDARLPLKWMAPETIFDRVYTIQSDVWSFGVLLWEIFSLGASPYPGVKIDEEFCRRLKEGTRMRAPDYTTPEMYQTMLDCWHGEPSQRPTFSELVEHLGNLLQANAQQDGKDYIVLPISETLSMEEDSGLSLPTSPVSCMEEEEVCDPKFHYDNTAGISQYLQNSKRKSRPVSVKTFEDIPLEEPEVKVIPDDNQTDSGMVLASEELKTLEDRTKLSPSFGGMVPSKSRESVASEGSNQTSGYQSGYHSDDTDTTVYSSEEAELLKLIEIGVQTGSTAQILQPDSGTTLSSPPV
Sequence of Gamma-aminobutyric acid receptor subunit alpha-1/alpha-2/beta-2/gamma-2 (P14867 whole entry): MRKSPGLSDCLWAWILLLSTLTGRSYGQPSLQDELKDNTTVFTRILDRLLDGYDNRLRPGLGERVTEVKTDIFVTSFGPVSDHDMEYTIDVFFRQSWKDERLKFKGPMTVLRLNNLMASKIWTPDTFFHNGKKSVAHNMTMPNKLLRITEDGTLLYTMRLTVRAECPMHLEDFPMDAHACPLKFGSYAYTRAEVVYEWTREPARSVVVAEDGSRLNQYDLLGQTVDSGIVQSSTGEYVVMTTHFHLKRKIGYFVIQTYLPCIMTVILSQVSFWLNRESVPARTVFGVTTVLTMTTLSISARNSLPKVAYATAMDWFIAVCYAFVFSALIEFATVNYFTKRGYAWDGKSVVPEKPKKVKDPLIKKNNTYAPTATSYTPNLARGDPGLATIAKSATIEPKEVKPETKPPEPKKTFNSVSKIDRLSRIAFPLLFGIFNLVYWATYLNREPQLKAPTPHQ
Sequence of Gamma-aminobutyric acid receptor subunit alpha-1/alpha-2/beta-2/gamma-2 (P47870 whole entry): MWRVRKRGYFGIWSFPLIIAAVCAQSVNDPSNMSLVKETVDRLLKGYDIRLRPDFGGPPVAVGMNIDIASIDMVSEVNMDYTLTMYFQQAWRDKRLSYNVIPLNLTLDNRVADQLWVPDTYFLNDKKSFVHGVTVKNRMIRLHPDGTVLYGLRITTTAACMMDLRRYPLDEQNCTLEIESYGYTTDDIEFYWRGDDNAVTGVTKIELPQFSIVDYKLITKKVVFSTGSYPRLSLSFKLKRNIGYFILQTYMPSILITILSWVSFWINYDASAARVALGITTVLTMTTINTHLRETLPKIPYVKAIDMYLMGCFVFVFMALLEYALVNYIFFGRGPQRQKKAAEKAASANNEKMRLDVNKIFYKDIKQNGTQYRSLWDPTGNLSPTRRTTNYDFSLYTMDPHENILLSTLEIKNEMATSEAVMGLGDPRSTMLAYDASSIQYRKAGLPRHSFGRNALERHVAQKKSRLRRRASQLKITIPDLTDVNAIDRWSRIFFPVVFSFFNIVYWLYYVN
Sequence of Gamma-aminobutyric acid receptor subunit alpha-1/alpha-2/beta-2/gamma-2 (P18507 whole entry): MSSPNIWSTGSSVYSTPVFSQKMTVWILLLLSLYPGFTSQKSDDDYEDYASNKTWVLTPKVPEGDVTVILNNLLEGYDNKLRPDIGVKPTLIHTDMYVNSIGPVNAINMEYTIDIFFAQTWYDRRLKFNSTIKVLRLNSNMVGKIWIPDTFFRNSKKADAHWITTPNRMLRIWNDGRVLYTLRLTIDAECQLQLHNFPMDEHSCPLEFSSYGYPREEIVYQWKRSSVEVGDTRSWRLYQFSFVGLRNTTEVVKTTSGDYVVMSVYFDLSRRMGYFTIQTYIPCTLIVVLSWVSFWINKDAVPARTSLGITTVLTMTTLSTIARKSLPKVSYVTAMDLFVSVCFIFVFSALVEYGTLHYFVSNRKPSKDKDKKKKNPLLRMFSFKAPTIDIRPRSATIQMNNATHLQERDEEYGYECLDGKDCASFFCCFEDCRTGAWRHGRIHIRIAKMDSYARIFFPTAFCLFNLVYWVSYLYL
Sequence of Gamma-aminobutyric acid receptor subunit alpha-1/alpha-2/beta-2/gamma-2 (P47869 whole entry): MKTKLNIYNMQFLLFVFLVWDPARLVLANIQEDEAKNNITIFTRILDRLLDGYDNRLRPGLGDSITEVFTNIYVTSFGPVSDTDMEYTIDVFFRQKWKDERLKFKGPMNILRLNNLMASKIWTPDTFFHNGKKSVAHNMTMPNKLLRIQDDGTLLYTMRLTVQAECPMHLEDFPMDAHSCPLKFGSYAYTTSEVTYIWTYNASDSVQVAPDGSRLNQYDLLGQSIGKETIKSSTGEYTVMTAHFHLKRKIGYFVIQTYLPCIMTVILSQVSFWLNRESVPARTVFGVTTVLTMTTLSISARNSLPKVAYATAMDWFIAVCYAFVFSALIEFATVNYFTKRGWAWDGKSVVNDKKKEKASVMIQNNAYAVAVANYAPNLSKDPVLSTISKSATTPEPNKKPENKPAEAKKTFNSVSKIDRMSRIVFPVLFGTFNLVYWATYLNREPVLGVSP
Sequence of Kappa-type opioid receptor (P41145 whole entry): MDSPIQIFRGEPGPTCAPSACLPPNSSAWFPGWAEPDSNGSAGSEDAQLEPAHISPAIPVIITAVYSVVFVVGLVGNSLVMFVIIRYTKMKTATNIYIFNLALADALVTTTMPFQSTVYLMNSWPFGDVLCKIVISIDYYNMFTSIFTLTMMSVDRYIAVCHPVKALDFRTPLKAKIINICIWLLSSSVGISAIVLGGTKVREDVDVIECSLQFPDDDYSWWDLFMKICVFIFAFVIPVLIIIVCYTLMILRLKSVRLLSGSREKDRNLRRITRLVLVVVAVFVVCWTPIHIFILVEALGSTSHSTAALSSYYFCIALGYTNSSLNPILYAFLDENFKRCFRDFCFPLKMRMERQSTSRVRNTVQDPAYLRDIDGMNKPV
Sequence of D(1A) dopamine receptor (P21728 whole entry): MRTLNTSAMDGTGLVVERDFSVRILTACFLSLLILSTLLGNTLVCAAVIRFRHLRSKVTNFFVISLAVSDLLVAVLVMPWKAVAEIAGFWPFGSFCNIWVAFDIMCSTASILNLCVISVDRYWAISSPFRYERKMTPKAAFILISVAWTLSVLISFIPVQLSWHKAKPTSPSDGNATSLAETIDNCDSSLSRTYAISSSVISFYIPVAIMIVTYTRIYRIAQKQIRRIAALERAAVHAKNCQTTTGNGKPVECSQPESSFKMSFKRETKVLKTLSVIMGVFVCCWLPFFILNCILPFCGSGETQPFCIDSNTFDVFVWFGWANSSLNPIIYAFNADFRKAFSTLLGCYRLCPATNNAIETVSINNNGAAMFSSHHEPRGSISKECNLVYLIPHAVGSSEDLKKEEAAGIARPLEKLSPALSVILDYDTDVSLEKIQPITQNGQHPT

C[C@H](CCC(=O)O)[C@H]1CC[C@H]2[C@@H]3[C@@H](O)C[C@@H]4C[C@H](O)CC[C@]4(C)[C@H]3CC[C@]12C [URSODIOL]
AC50 [1]: > 30 µM
AC50 [2]: > 30 µM
AC50 [3]: > 30 µM
AC50 (Endothelin-1 receptor): > 30 µM
AC50 [4]: > 30 µM

CN(CC1(C)CCCO1)S(=O)(=O)c1ccc(Cl)c(S(N)(=O)=O)c1 (centres undefined) [MEFRUSIDE]
AC50 [1]: > 30 µM
AC50 [5]: > 30 µM
AC50 [2]: > 30 µM
AC50 [3]: > 30 µM
AC50 [6]: > 30 µM

COc1cc2nc(N3CCN(C(=O)C4CCCO4)CC3)nc(N)c2cc1OC (centres undefined) [TERAZOSIN]
AC50 [5]: > 10 µM
AC50 (D(1A) dopamine receptor): > 10 µM
AC50 [2]: > 10 µM
AC50 [3]: > 10 µM
AC50 (Endothelin-1 receptor): > 30 µM
AC50 [4]: > 30 µM

COc1ccccc1OCCNCC(O)COc1cccc2[nH]c3ccccc3c12 (centres undefined) [CARVEDILOL]
AC50 [5]: 5.09 µM
AC50 (D(1A) dopamine receptor): 2.28 µM
AC50 [2]: > 10 µM
AC50 [3]: > 10 µM
AC50 (Endothelin-1 receptor): > 30 µM
AC50 [6]: 18.9 µM
AC50 [4]: 31.7 µM

CC(C)Cc1ccc(C(C)C(=O)O)cc1 (centres undefined) [IBUPROFEN]
AC50 [5]: > 10 µM
AC50 [7]: > 30 µM
AC50 (D(1A) dopamine receptor): > 10 µM
AC50 [2]: > 10 µM
AC50 [3]: > 30 µM
AC50 (Endothelin-1 receptor): > 30 µM
AC50 [6]: > 10 µM
AC50 [4]: > 30 µM
AC50 [8]: > 30 µM

Cc1onc(-c2ccccc2)c1-c1ccc(S(N)(=O)=O)cc1 [VALDECOXIB]
AC50 [5]: > 10 µM
AC50 [7]: > 30 µM
AC50 (D(1A) dopamine receptor): > 10 µM
AC50 [2]: > 10 µM
AC50 [3]: > 30 µM
AC50 (Endothelin-1 receptor): > 30 µM
AC50 [6]: > 10 µM
AC50 [4]: > 30 µM
AC50 [8]: > 30 µM

CN1C[C@H](C(=O)N[C@]2(C)O[C@@]3(O)[C@@H]4CCCN4C(=O)[C@H](Cc4ccccc4)N3C2=O)C=C2c3cccc4[nH]cc(c34)C[C@H]21 [ERGOTAMINE]
AC50 [1]: > 30 µM
AC50 [2]: > 30 µM
AC50 [3]: > 30 µM
AC50 (Endothelin-1 receptor): > 30 µM
AC50 [4]: > 30 µM

C[C@@H]1C[C@H]2[C@@H]3CCC4=CC(=O)C=C[C@]4(C)[C@@]3(Cl)[C@@H](O)C[C@]2(C)[C@@]1(OC(=O)c1ccco1)C(=O)CCl [MOMETASONE FUROATE]
AC50 [7]: > 10 µM
AC50 [8]: > 30 µM

CNC(=O)Oc1cccc2ccccc12 [CARBARIL]
AC50 [7]: > 30 µM
AC50 [8]: > 30 µM

C[C@H]1c2cccc(O)c2C(=O)C2=C(O)[C@]3(O)C(=O)C(C(N)=O)=C(O)[C@@H](N(C)C)[C@@H]3[C@@H](O)[C@@H]21 [DOXYCYCLINE]
AC50 [5]: > 10 µM
AC50 (D(1A) dopamine receptor): > 10 µM
AC50 [2]: > 10 µM
AC50 [3]: > 30 µM
AC50 (Endothelin-1 receptor): > 30 µM
AC50 [6]: > 10 µM
AC50 [4]: > 30 µM

N[C@@H](CS)C(=O)O [CYSTEINE]
AC50 [7]: > 30 µM
AC50 [8]: > 30 µM

COc1ccccc1Oc1c(NS(=O)(=O)c2ccc(C(C)(C)C)cc2)nc(-c2ncccn2)nc1OCCO [BOSENTAN]
AC50 [5]: > 10 µM
AC50 (D(1A) dopamine receptor): > 10 µM
AC50 [2]: > 10 µM
AC50 [3]: > 30 µM
AC50 [6]: > 10 µM
AC50 [4]: > 30 µM

Nc1ccc(S(=O)(=O)Nc2nccs2)cc1 [SULFATHIAZOLE]
AC50 [5]: > 10 µM
AC50 (D(1A) dopamine receptor): > 10 µM
AC50 [2]: > 10 µM
AC50 [3]: > 30 µM
AC50 (Endothelin-1 receptor): > 30 µM
AC50 [6]: > 10 µM
AC50 [4]: > 30 µM

C/C=C/C/C=C/CCC(=O)[C@H]1O[C@H]1C(N)=O [CERULENIN]
AC50 [7]: > 30 µM
AC50 [8]: > 30 µM

CCCC(CCC)C(=O)O [VALPROIC ACID]
AC50 [5]: > 10 µM
AC50 (D(1A) dopamine receptor): > 10 µM
AC50 [2]: > 10 µM
AC50 [3]: > 30 µM
AC50 (Endothelin-1 receptor): > 30 µM
AC50 [6]: > 10 µM
AC50 [4]: > 30 µM

Cc1ccccc1C(=O)Nc1ccc(C(=O)N2CCCC(N(C)C)c3ccccc32)cc1 (centres undefined) [MOZAVAPTAN]
AC50 [7]: 18.8 µM
AC50 [8]: > 30 µM

C[C@]1(Cn2ccnn2)[C@H](C(=O)O)N2C(=O)C[C@H]2S1(=O)=O [TAZOBACTAM]
AC50 [7]: > 30 µM
AC50 [8]: > 30 µM

CN(C)[C@@H]1C(O)=C(C(N)=O)C(=O)[C@@]2(O)C(O)=C3C(=O)c4c(O)ccc(Cl)c4[C@@](C)(O)[C@H]3C[C@@H]12 [CHLORTETRACYCLINE]
AC50 [7]: > 30 µM
AC50 [8]: > 30 µM

C[N+](C)(C)C[C@H](O)CC(=O)[O-] [LEVOCARNITINE]
AC50 [7]: > 30 µM
AC50 [8]: > 30 µM

CC(C)OC(=O)CCC/C=C\C[C@@H]1[C@@H](/C=C/C(F)(F)COc2ccccc2)[C@H](O)C[C@@H]1O [TAFLUPROST]
AC50 [7]: > 30 µM
AC50 [8]: > 10 µM

CC1=C(/C=C/C(C)=C/C=C/C(C)=C/C(=O)O)C(C)(C)CCC1 [TRETINOIN]
AC50 [7]: 20.3 µM
AC50 [8]: > 30 µM

C=CCN1CC[C@]23CCCC[C@H]2[C@H]1Cc1ccc(O)cc13 [LEVALLORPHAN]
AC50 [7]: > 30 µM
AC50 [8]: > 30 µM

CC(C)(O)CNc1nc(Nc2ccnc(C(F)(F)F)c2)nc(-c2cccc(C(F)(F)F)n2)n1 [ENASIDENIB]
AC50 [7]: 20.3 µM
AC50 [8]: 20.5 µM

Cc1onc(-c2ccccc2)c1C(=O)N[C@@H]1C(=O)N2[C@@H]1SC(C)(C)[C@@H]2C(=O)O [OXACILLIN]
AC50 [7]: > 30 µM
AC50 [8]: > 30 µM

O=C(O)COc1ccc(C(=O)c2cccs2)c(Cl)c1Cl
AC50 [7]: > 30 µM
AC50 [8]: > 30 µM

COc1c2ccoc2cc2oc(=O)ccc12 [BERGAPTEN]
AC50 [7]: > 30 µM
AC50 [8]: > 30 µM

CC[C@H](C)C[C@H](C)CCCCCCCCC(=O)N[C@H]1C[C@@H](O)[C@@H](NCCN)NC(=O)[C@@H]2[C@@H](O)CCN2C(=O)[C@H]([C@H](O)CCN)NC(=O)[C@H]([C@H](O)[C@@H](O)c2ccc(O)cc2)NC(=O)[C@@H]2C[C@@H](O)CN2C(=O)[C@H]([C@@H](C)O)NC1=O [CASPOFUNGIN]
AC50 [7]: 13 µM
AC50 [8]: > 10 µM

CO[C@H]1/C=C/O[C@@]2(C)Oc3c(C)c(O)c4c(O)c(c(/C=N/N5CCN(C)CC5)c(O)c4c3C2=O)NC(=O)/C(C)=C\C=C\[C@H](C)[C@H](O)[C@@H](C)[C@@H](O)[C@@H](C)[C@H](OC(C)=O)[C@@H]1C [RIFAMPIN]
AC50 [5]: > 30 µM
AC50 (D(1A) dopamine receptor): > 10 µM
AC50 [2]: > 30 µM
AC50 [3]: 5.2 µM
AC50 (Endothelin-1 receptor): > 30 µM
AC50 [6]: > 30 µM
AC50 [4]: 12.4 µM

Nc1ccc(C(=O)Oc2ccccc2)c(O)c1 [PHENYL AMINOSALICYLATE]
AC50 [7]: 23 µM
AC50 [8]: 23.2 µM
